The subject of one data set is MCF-7 cells. In words: Anti-proliferative activity, SRB assay, MCF-7. The conditions noted are these: for IC50: Homo sapiens, SRB assay, 72 h exposure, mean ± SD of three separate experiments; for MCF-7 SI (selectivity index): ratio of IC50 for normal cells (WI-38) to IC50 for MCF-7. The format is cell-based, human. The source says:
(§1) Several of these derivatives were reported as acting as competitive inhibitors of different tyrosine kinases, with potent cytotoxic activity against various cell lines[58]^,[59]. […] Thus, in this study a novel series of benzoxazole-benzamide conjugates was initially evaluated for their potential anti-cancer activity against colon cancer cell line (HCT-116), breast cancer cell line (MCF-7) and normal human fibroblasts (WI-38), using the Sulforhodamine B colorimetric (SRB) assay.
(§2) 2.1. Anti-proliferative activity against HCT-116 and MCF-7 human cancer cells lines.
(§3) The sulforhodamine B (SRB) assays were performed according to Skehan et al..
(§4) Briefly, exponentially growing cells were trypsinized, counted and seeded at the appropriate densities (5000 cells/100 μL/ well) into 96-well microtiter plates. Cells were incubated in a humidified atmosphere at 37 °C for 24 h. Then, the cells were exposed to the tested compounds at the desired concentrations (0.01, 0.1, 1, 10, and 100 μM) or to 1% dimethyl sulfoxide (DMSO) for 72 h. At the end of the treatment period, the media were removed, and the cells were fixed with 10% trichloroacetic acid at 4 °C for 1 h. Following, the cells were washed with tap water four times and incubated with SRB 0.4% for 30 min. Excess dye was removed by washing repeatedly with 1% (vol/vol) acetic acid. The protein-bound dye was dissolved in 10 mM Tris base solution for (optical density) OD determination at 510 nm using a Spectra Max plus Microplate Reader (Molecular Devices, CA). Cell viability was expressed relative to the untreated control cells. […]
(In general: The SRB assay estimates cell density from bound dye.)

Another data set deals with HCT-116 cells. In words: Anti-proliferative activity, SRB assay, HCT-116. The note with it: for IC50: Homo sapiens, SRB assay, 72 h exposure, mean ± SD of three separate experiments; for HCT-116 SI (selectivity index): ratio of IC50 for normal cells (WI-38) to IC50 for HCT-116. The format is cell-based, human.
Text: as §1, §2, §3, §4

In a further data set the test system is WI-38 cells. Briefly: Cytotoxicity against normal fibroblasts, SRB assay, WI-38. The format is cell-based. The note with it: normal human fibroblasts, 72 h, mean ± SD of three separate experiments.
Text: as §1, §2, §3, §4

In the next data set the target is T1, VEGFR-2 Protein Kinase (Homo sapiens, UniProt P35968).
T1 construct: It includes active VEGFR-2 kinase; purchased HTScan VEGF Receptor-2 Kinase Assay Kit
T1 sequence (P35968 20-1356): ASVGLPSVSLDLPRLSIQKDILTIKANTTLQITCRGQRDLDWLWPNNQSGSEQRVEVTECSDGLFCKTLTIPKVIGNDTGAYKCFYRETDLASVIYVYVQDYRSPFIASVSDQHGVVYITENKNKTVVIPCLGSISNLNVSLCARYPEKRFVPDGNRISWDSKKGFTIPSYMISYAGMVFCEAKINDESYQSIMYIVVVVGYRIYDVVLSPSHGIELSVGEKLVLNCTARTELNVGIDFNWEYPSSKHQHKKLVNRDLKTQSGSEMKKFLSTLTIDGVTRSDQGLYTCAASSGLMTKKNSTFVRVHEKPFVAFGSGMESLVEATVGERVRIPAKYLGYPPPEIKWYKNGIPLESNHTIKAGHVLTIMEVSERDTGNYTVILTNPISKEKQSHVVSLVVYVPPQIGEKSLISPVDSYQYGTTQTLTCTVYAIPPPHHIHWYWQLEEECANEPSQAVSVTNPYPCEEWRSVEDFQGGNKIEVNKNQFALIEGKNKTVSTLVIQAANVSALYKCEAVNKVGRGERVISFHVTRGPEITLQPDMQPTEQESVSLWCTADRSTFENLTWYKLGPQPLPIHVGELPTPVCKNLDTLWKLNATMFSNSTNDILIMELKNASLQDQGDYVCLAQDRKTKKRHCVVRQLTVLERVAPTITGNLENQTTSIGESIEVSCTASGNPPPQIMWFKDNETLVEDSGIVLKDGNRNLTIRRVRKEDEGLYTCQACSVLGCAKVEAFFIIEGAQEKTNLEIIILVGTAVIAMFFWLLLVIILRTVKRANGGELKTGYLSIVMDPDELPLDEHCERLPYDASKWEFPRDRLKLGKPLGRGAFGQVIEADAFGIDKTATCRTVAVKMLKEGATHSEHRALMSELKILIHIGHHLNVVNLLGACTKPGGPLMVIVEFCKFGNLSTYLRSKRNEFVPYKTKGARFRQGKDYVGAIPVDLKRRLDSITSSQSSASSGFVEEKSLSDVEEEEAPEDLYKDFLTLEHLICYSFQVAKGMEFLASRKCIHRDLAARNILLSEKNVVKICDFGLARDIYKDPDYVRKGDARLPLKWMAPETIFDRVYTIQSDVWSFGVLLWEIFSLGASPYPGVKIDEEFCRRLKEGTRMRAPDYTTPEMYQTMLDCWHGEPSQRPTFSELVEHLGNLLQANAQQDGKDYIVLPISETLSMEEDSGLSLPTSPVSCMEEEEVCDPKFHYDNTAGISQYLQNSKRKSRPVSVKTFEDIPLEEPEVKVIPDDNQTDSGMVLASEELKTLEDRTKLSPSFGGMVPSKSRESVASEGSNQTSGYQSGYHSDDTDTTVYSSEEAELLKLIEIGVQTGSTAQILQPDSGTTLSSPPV
In words: VEGFR-2 inhibitory activity (HTScan VEGF Receptor-2 Kinase Assay Kit, ELISA). The format is biochemical. The conditions noted are these: mean of three individual experiments. Here is the method: 2.2. VEGFR-2 Inhibitory activity
VEGFR-2 ELISA (Enzyme-Linked Immunosorbent Assay) kits (HTScan® VEGF Receptor-2 […]
phospho-tyrosine antibody) for detection of the phosphorylated form of the substrate peptide).
On a 96-well plate, a particular VEGFR-2 antibody was seeded and 100 μL of the normal solution or the tested compound tested was applied, incubated at room temperature for 2.5 h and washed. Then, 100 μL of the prepared biotin antibody was added, incubated for an additional 1 h at room temperature and washed. Following, 100 μL of streptavidin solution was added at room temperature, incubated for 45 minutes and then, 100 μL of TMB Substrate solution was applied and incubated at room temperature for 30 minutes. Finally, 50 μL stop solution was added and the absorption was measured at 450 nm instantly. The standard curve, the X -axis concentrations, and the Y-axis absorbance were drawn. […]
(In general: ELISA stands for enzyme-linked immunosorbent assay.)

Usually melting point stands for the temperature of the solid-liquid transition. By IC50 is commonly meant the point on the concentration scale where inhibition reaches its midpoint. As to `O=C(CSc1nc2ccccc2o1)Nc1ccc(C(=O)Nc2ccccc2)cc1` [Compound 2], the melting point lay in the range of 250 to 252 °C. For the same molecule, in the data set with MCF-7 cells (MCF7, 72 h), the IC50 was found to be 11.7 ± 0.014 µM. For the same molecule, the “MCF-7 SI (selectivity index)” value with MCF-7 cells came out at 4.8. Half-maximal inhibition in the data set with HCT-116 cells (HCT-116, 72 h) (IC50) was put at 18.5 ± 0.014 µM. Besides, in the data set on HCT-116 cells, the “HCT-116 SI (selectivity index)” value was determined as 3.0. The IC50 with WI-38 cells came out at 56.7 ± 0.36 µM.
As for `O=C(CSc1nc2ccccc2o1)Nc1ccc(C(=O)Nc2ccc(Cl)cc2)cc1` [Compound 3], the melting point lay within 238 to 240 °C. This molecule displayed an IC50 in the data set with MCF-7 cells (MCF7, 72 h) of 22.7 ± 0.008 µM. Besides, the “MCF-7 SI (selectivity index)” value in the data set with MCF-7 cells was 2.6. In the data set with HCT-116 cells (HCT-116, 72 h), the midpoint of inhibition, the IC50, lay at 24.2 ± 0.019 µM. For the same molecule, the “HCT-116 SI (selectivity index)” value with HCT-116 cells was determined as 2.4. The IC50 with WI-38 cells worked out at 59.3 ± 0.45 µM.
For `COc1ccc(NC(=O)c2ccc(NC(=O)CSc3nc4ccccc4o3)cc2)cc1` [Compound 4], the melting point fell in the range of 260 to 262 °C. The IC50 in the data set with MCF-7 cells (MCF7, 72 h) came out at 23.6 ± 0.015 µM. Moreover, the “MCF-7 SI (selectivity index)” value with MCF-7 cells is listed as 2.2. The same molecule came in with an IC50 with HCT-116 cells (HCT-116, 72 h) of 23.2 ± 0.012 µM. In addition, in the data set on HCT-116 cells, the “HCT-116 SI (selectivity index)” value worked out at 2.2. The IC50 with WI-38 cells is 51.5 ± 0.4 µM.
`Cc1ccc2oc(SCC(=O)Nc3ccc(C(=O)NC4CCCCC4)cc3)nc2c1` [Compound 5] had a melting point of 256 to 258 °C. Moreover, in the data set on MCF-7 cells (MCF7, 72 h), inhibition was half-maximal at 12.4 ± 0.007 µM (IC50). Further, in the data set on MCF-7 cells, the “MCF-7 SI (selectivity index)” value is 6.9. The molecule further registered an IC50 in the data set on HCT-116 cells (HCT-116, 72 h) of 20.9 ± 0.025 µM. Moreover, the “HCT-116 SI (selectivity index)” value with HCT-116 cells is 4.0. The midpoint of inhibition with WI-38 cells, the IC50, lay at 85.4 ± 0.55 µM.
Molecule `Cc1ccc2oc(SCC(=O)Nc3ccc(C(=O)Nc4ccccc4)cc3)nc2c1` [Compound 6] gave a melting point of 240 to 242 °C. The molecule also yielded an IC50 in the data set on MCF-7 cells (MCF7, 72 h) of 19.1 ± 0.006 µM. In addition, in the data set with MCF-7 cells, the “MCF-7 SI (selectivity index)” value is recorded as 6.5. Moreover, the IC50 in the data set with HCT-116 cells (HCT-116, 72 h) came out at 30.7 ± 0.011 µM. For the same molecule, the “HCT-116 SI (selectivity index)” value in the data set with HCT-116 cells came to 4.0. The molecule further returned an IC50 in the data set with WI-38 cells of 124.6 ± 0.7 µM.
Molecule `Cc1ccc2oc(SCC(=O)Nc3ccc(C(=O)Nc4ccc(Cl)cc4)cc3)nc2c1` [Compound 7] showed a melting point of 265 to 267 °C. This molecule displayed an IC50 in the data set with MCF-7 cells (MCF7, 72 h) of 24 ± 0.011 µM. The “MCF-7 SI (selectivity index)” value with MCF-7 cells was 5.3. The molecule further displayed an IC50 in the data set with HCT-116 cells (HCT-116, 72 h) of 32 ± 0.002 µM. Moreover, in the data set with HCT-116 cells, the “HCT-116 SI (selectivity index)” value was found to be 4.0. The molecule further gave an IC50 in the data set with WI-38 cells of 128.2 ± 0.75 µM.
With `COc1ccc(NC(=O)c2ccc(NC(=O)CSc3nc4cc(C)ccc4o3)cc2)cc1` [Compound 8], the melting point is 258 to 260 °C. The half-maximal inhibitory concentration (IC50) in the data set with MCF-7 cells (MCF7, 72 h) is 22.3 ± 0.004 µM. The “MCF-7 SI (selectivity index)” value in the data set on MCF-7 cells is reported as 6.0. In addition, the 50% inhibitory concentration (IC50) in the data set with HCT-116 cells (HCT-116, 72 h) was 28.8 ± 0.01 µM. For the same molecule, the “HCT-116 SI (selectivity index)” value with HCT-116 cells stood at 4.7. For the same molecule, half-maximal inhibition in the data set on WI-38 cells (IC50) required 135.4 ± 0.85 µM.
Molecule `O=C(CSc1nc2cc(Cl)ccc2o1)Nc1ccc(C(=O)NC2CCCCC2)cc1` [Compound 9] came in with a melting point of 260 to 262 °C. In the data set on MCF-7 cells (MCF7, 72 h), half-maximal inhibition (IC50) required 12.3 ± 0.008 µM. In addition, the “MCF-7 SI (selectivity index)” value in the data set on MCF-7 cells is on record as 6.0. In addition, the concentration for half-maximal inhibition (IC50) with HCT-116 cells (HCT-116, 72 h) was 17.1 ± 0.008 µM. Further, in the data set on HCT-116 cells, the “HCT-116 SI (selectivity index)” value is 4.4. For the same molecule, the IC50 against VEGFR-2 Protein Kinase is 0.649 ± 0.008 µM. The molecule also registered an IC50 in the data set with WI-38 cells of 74.6 ± 0.53 µM.
Molecule `O=C(CSc1nc2cc(Cl)ccc2o1)Nc1ccc(C(=O)Nc2ccccc2)cc1` [Compound 10] yielded a melting point of 245 to 247 °C. In addition, 16.1 ± 0.011 µM corresponded to half-maximal inhibition in the data set on MCF-7 cells (MCF7, 72 h) (IC50). Moreover, the “MCF-7 SI (selectivity index)” value in the data set with MCF-7 cells is 7.8. The molecule also gave an IC50 in the data set on HCT-116 cells (HCT-116, 72 h) of 16.7 ± 0.012 µM. Moreover, in the data set with HCT-116 cells, the “HCT-116 SI (selectivity index)” value came to 7.5. On VEGFR-2 Protein Kinase, this molecule showed an IC50 of 0.704 ± 0.009 µM. The same molecule showed an IC50 in the data set on WI-38 cells of 125.5 ± 0.72 µM.
Molecule `COc1ccc(NC(=O)c2ccc(NC(=O)CSc3nc4cc(Cl)ccc4o3)cc2)cc1` [Compound 12] showed a melting point of 266 to 268 °C. Moreover, it took 9.4 ± 0.016 µM to reach half-maximal inhibition in the data set on MCF-7 cells (MCF7, 72 h) (IC50). Further, the “MCF-7 SI (selectivity index)” value in the data set with MCF-7 cells is listed as 13.4. In the data set with HCT-116 cells (HCT-116, 72 h), this molecule displayed an IC50 of 10.4 ± 0.01 µM. Besides, the “HCT-116 SI (selectivity index)” value in the data set with HCT-116 cells is 12.1. Besides, at VEGFR-2 Protein Kinase, the half-inhibitory concentration (IC50) is 0.385 ± 0.005 µM. In addition, in the data set with WI-38 cells, the IC50 is 126.2 ± 0.75 µM.
Regarding `O=C(CSc1nc2ccccc2o1)Nc1ccc(C(=O)NNC(=O)c2ccccc2)cc1` [Compound 13], the melting point was in the range of 270 to 272 °C. 9 ± 0.005 µM corresponded to half-maximal inhibition in the data set with MCF-7 cells (MCF7, 72 h) (IC50). In addition, the “MCF-7 SI (selectivity index)” value in the data set on MCF-7 cells was found to be 10.1. For the same molecule, the IC50 in the data set with HCT-116 cells (HCT-116, 72 h) stood at 9.1 ± 0.005 µM. Moreover, the “HCT-116 SI (selectivity index)” value with HCT-116 cells was 10.0. In addition, the IC50 in the data set on WI-38 cells amounted to 91.3 ± 0.6 µM.
For `Cc1ccc2oc(SCC(=O)Nc3ccc(C(=O)NNC(=O)c4ccccc4)cc3)nc2c1` [Compound 14], the melting point is 250 to 252 °C. In the data set on MCF-7 cells (MCF7, 72 h), inhibition was half-maximal at 9.5 ± 0.009 µM (IC50). Also, in the data set with MCF-7 cells, the “MCF-7 SI (selectivity index)” value is given as 10.1. Half-maximal inhibition with HCT-116 cells (HCT-116, 72 h) (IC50) was put at 9.7 ± 0.013 µM. Moreover, in the data set with HCT-116 cells, the “HCT-116 SI (selectivity index)” value is listed as 9.9. In the data set with WI-38 cells, this molecule came in with an IC50 of 96.5 ± 0.65 µM.
Consider `O=C(CSc1nc2cc(Cl)ccc2o1)Nc1ccc(C(=O)NNC(=O)c2ccccc2)cc1` [Compound 15], for which the melting point was 277 to 279 °C. In addition, the IC50 with MCF-7 cells (MCF7, 72 h) was 15.3 ± 0.01 µM. For the same molecule, in the data set with MCF-7 cells, the “MCF-7 SI (selectivity index)” value is listed as 8.6. Also, in the data set with HCT-116 cells (HCT-116, 72 h), half-maximal inhibition (IC50) was put at 12.9 ± 0.014 µM. Further, the “HCT-116 SI (selectivity index)” value with HCT-116 cells was 10.2. Besides, half-maximal inhibition against VEGFR-2 Protein Kinase (IC50) required 0.597 ± 0.007 µM. Moreover, in the data set on WI-38 cells, half-maximal inhibition (IC50) required 131.5 ± 0.8 µM.
On to `CNC(=O)c1cc(Oc2ccc(NC(=O)Nc3ccc(Cl)c(C(F)(F)F)c3)cc2)ccn1` [Sorafenib, reference compound], for which the IC50 stood at 10.5 ± 0.014 µM with MCF-7 cells (MCF7) and 11.6 ± 0.012 µM in the data set on HCT-116 cells (HCT-116).

The record behind these values is article PMC9176662, “Design, synthesis, molecular modeling and biological evaluation of novel Benzoxazole-Benzamide conjugates via a 2-Thioacetamido linker as potential anti-proliferative agents, VEGFR-2 inhibitors and apoptotic inducers” (Journal of Enzyme Inhibition and Medicinal Chemistry, 2022).
